The experiment concerns the target Recombinant human glycogen synthase kinase 3 beta (Homo sapiens, UniProt P49841). The experiment in a line: GSK-3 beta inhibition assay (33P-ATP, GS-2 peptide substrate, phosphocellulose filter counting). It is filed as biochemical. The conditions noted are these: result in percentage of enzyme activity (lower = more inhibition); for activity at 25 µM: test compound at 25µM; for activity at 50 µM: test compound at 50µM. On the procedure: The GSK-3 beta activity of the compounds of formula (I) according to the present invention was determined by incubation of a mixture of recombinant human GSK-3 enzyme, a phosphate source and GSK-3 substrate in the presence and in the absence of the corresponding test compound, and by measuring the GSK-3 activity of this mixture. The compounds where tested at final concentrations of 25 and 50 µM.
Recombinant human glycogen synthase kinase 3 beta was assayed in MOPS 8 mM pH 7.3, EDTA 0.2 mM, MgCl2 10 mM and sodium orthovanadate 0.25 mM in the presence of 62.5 µM of Phospho-Glycogen Synthase Peptide-2 (GS-2), 0.5 µCi gamma-^33P-ATP and unlabelled ATP at a final concentration of 12.5 µM. The final assay volume was 20 µl. After incubation for 30 minutes at 30 °C, 15 µl aliquots were spotted onto P81 phosphocellulose papers. Filters were washed four times for at least 10 minutes each and counted with 1.5 ml of scintillation cocktail in a scintillation counter.
The compounds of formula (I) of the present invention where submitted to the above indicated assays, in order to determine both their GSK-3 inhibition activity and BACE activity inhibition. The results are indicated in Table I, in percentage of the respective enzyme activity.

Recombinant human glycogen synthase kinase 3 beta, sequence (P49841 whole entry): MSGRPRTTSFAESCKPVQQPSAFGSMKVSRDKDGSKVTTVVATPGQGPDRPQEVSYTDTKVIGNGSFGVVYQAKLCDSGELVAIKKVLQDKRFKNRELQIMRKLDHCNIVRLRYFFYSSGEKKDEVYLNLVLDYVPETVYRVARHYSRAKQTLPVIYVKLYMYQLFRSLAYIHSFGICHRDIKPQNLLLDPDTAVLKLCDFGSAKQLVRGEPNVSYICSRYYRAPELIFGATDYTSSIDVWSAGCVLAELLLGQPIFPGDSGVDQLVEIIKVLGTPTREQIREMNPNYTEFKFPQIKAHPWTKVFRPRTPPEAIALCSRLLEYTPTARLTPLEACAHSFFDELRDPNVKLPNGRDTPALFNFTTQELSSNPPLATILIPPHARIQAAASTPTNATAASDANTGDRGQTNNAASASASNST

On to `CC(=CC=CC(C)CCC=C(C)COC(=O)C(C)(C)C)CCCc1ccoc1` (stereo not shown) [2,2-Dimethyl-propionic acid 13-furan-3-yl-2,6,10-trimethyl-trideca-2,7,9-trienyl ester], for which the activity at 25 µM amounted to 45% and the activity at 50 µM is 27%.

With `CC(C)(C)[Si](OCC(O)c1ccco1)(c1ccccc1)c1ccccc1` (stereo not shown) [2-(tert-Butyl-diphenyl-silanyloxy)-1-furan-2-yl-ethanol], the activity at 50 µM worked out at 48.6%.

For `OCC=Cc1ccoc1` [3-Furan-3-yl-prop-2-en-1-ol], the activity at 25 µM is 61.1% and the activity at 50 µM is 55.6%.

For the compound `CCOC(=O)C=C(C)CCCc1ccoc1` [6-Furan-3-yl-3-methyl-hex-2-enoic acid ethyl ester], the activity at 25 µM was 83.7% and the activity at 50 µM came out at 67.4%.

Consider `CC(=CCCC(C)C=CC=C(C)CCCc1ccoc1)CO` (stereo not shown) [13-Furan-3-yl-2,6,10-trimethyl-trideca-2,7,9-trien-1-ol], for which the activity at 25 µM was determined as 83.7% and the activity at 50 µM turned out to be 61.2%.

For the compound `CC(C)(C)[Si](OCCc1ccco1)(c1ccccc1)c1ccccc1` [tert-Butyl-(2-furan-2-yl-ethoxy)-diphenyl-silane], the activity at 50 µM is 47.6%.

Turning to `CC(C)(C)[Si](OCCCc1ccco1)(c1ccccc1)c1ccccc1` [tert-Butyl-(3-furan-2-yl-propoxy)-diphenyl-silane], the activity at 50 µM amounted to 33.5%.

Turning to `CC(C)(C)[Si](OCCCCCc1ccco1)(c1ccccc1)c1ccccc1` [tert-Butyl-(5-furan-2-yl-pentyloxy)-diphenyl-silane], the activity at 50 µM came to 16.1%.

With `CC(C)(C)[Si](OCCCCCCc1ccco1)(c1ccccc1)c1ccccc1` [tert-Butyl-(6-furan-2-yl-hexyloxy)-diphenyl-silane], the activity at 50 µM turned out to be 5.08%.

Consider `CC(=CC=CC(C)CCCO[Si](c1ccccc1)(c1ccccc1)C(C)(C)C)CCCc1ccoc1` (stereo not shown) [tert-Butyl-(11-furan-3-yl-4,8-dimethyl-undeca-5,7-dienyloxy)-diphenyl-silane], for which the activity at 25 µM came to 29% and the activity at 50 µM turned out to be 14%.

On to `CC(C)(C)[Si](OCCCSCc1ccco1)(c1ccccc1)c1ccccc1` [tert-Butyl-[3-(furan-2-ylmethylsulfanyl)-propoxy]-diphenyl-silane], for which the activity at 50 µM is 17.4%.
